Source: PubChem BioAssay AID1259407 (Chemical Carcinogenesis Research Information System (CCRIS), 2018)
Active and inactive are the calls of the source. How the calls were made is not given here.

Test system: CCRIS mutagenicity, Ames/micronucleus/aberration tests
Assay: CCRIS mutagenicity studies
[1] = Test System: AMES SALMONELLA TYPHIMURIUM, Strain/Indicator: TA98, Metabolic Activation: HAMSTER, LIVER, S-9, AROCLOR 1254 (10%), Method: PREINCUBATION
[2] = Test System: AMES SALMONELLA TYPHIMURIUM, Strain/Indicator: TA98, Metabolic Activation: NONE, Method: PREINCUBATION
[3] = Test System: AMES SALMONELLA TYPHIMURIUM, Strain/Indicator: TA98, Metabolic Activation: RAT, LIVER, S-9, AROCLOR 1254 (10%), Method: PREINCUBATION
[4] = Test System: AMES SALMONELLA TYPHIMURIUM, Strain/Indicator: TA100, Metabolic Activation: HAMSTER, LIVER, S-9, AROCLOR 1254 (10%), Method: PREINCUBATION
[5] = Test System: AMES SALMONELLA TYPHIMURIUM, Strain/Indicator: TA100, Metabolic Activation: NONE, Method: PREINCUBATION
[6] = Test System: AMES SALMONELLA TYPHIMURIUM, Strain/Indicator: TA100, Metabolic Activation: RAT, LIVER, S-9, AROCLOR 1254 (10%), Method: PREINCUBATION
[7] = Test System: AMES SALMONELLA TYPHIMURIUM, Strain/Indicator: TA1535, Metabolic Activation: HAMSTER, LIVER, S-9, AROCLOR 1254 (10%), Method: PREINCUBATION
[8] = Test System: AMES SALMONELLA TYPHIMURIUM, Strain/Indicator: TA1535, Metabolic Activation: NONE, Method: PREINCUBATION
[9] = Test System: AMES SALMONELLA TYPHIMURIUM, Strain/Indicator: TA1535, Metabolic Activation: RAT, LIVER, S-9, AROCLOR 1254 (10%), Method: PREINCUBATION
[10] = Test System: AMES SALMONELLA TYPHIMURIUM, Strain/Indicator: TA1537, Metabolic Activation: HAMSTER, LIVER, S-9, AROCLOR 1254 (10%), Method: PREINCUBATION
[11] = Test System: AMES SALMONELLA TYPHIMURIUM, Strain/Indicator: TA1537, Metabolic Activation: NONE, Method: PREINCUBATION
[12] = Test System: AMES SALMONELLA TYPHIMURIUM, Strain/Indicator: TA1537, Metabolic Activation: RAT, LIVER, S-9, AROCLOR 1254 (10%), Method: PREINCUBATION
[13] = Test System: AMES SALMONELLA TYPHIMURIUM, Strain/Indicator: TA100, Metabolic Activation: NONE, Method: STANDARD PLATE

Question: Which results are given for COc1cc2c(cc1OC)CN(N=O)CC2?
Answer: mutagenic call (Test System: AMES SALMONELLA TYPHIMURIUM, Strain/Indicator: TA98, Metabolic Activation: RAT, LIVER, S-9, AROCLOR 1254, Method: PREINCUBATION): active; positive; mutagenic call (Test System: AMES SALMONELLA TYPHIMURIUM, Strain/Indicator: TA100, Metabolic Activation: RAT, LIVER, S-9, AROCLOR 1254, Method: PREINCUBATION): active; positive; mutagenic call (Test System: AMES SALMONELLA TYPHIMURIUM, Strain/Indicator: TA1535, Metabolic Activation: RAT, LIVER, S-9, AROCLOR 1254, Method: PREINCUBATION): active; positive; mutagenic call (Test System: AMES SALMONELLA TYPHIMURIUM, Strain/Indicator: TA1537, Metabolic Activation: RAT, LIVER, S-9, AROCLOR 1254, Method: PREINCUBATION): active; positive; mutagenic call (Test System: AMES SALMONELLA TYPHIMURIUM, Strain/Indicator: TA1538, Metabolic Activation: RAT, LIVER, S-9, AROCLOR 1254, Method: PREINCUBATION): active; positive

Question: Cc1cc2c(nc(N)n2C)c2nccnc12 was tested. Which mutagenic call (Test System: AMES SALMONELLA TYPHIMURIUM, Strain/Indicator: TA98, Metabolic Activation: RAT, LIVER, S-9, AROCLOR 1254, Method: STANDARD PLATE) did it give?
Answer: Its mutagenic call is “active; positive”.

Question: For CCCSP(=O)(OCC)Oc1ccc(Br)cc1Cl (configuration not stated), which mutagenic call (End Point: In vitro chromosomal aberrations, Test System: Human peripheral lymphocytes, Metabolic Activation: None) is on record?
Answer: The mutagenic call was “active; positive (structural changes)”.

Question: And the mutagenic call (End Point: In vivo chromosomal aberrations, Test System: Bone marrow cells, Species: Mouse, Strain/Sex: Swiss/Male, Route: Oral)?
Answer: The mutagenic call was “active; positive (structural changes and ploidy)”.

Question: How did the mutagenic call (Test System: E. COLI, Strain/Indicator: WP2 UVRA, Metabolic Activation: NONE, Method: FLUCTUATION TEST) turn out when NC(=O)OCc1ccccc1 was run?
Answer: Its mutagenic call is “inactive; negative”.

Question: For NC(=O)CC[C@H](N)C(=O)O, which mutagenic call (End Point: In vitro chromosomal aberrations, Test System: Chinese hamster ovary (CHO) cells, Metabolic Activation: None) is on record?
Answer: Its mutagenic call is “inactive; negative; glutamine, alone or in combination with vitamin c, reduced effect of d”.

Question: And the mutagenic call (End Point: In vivo chromosomal aberrations, Test System: Bone marrow cells, Species: Rat, Strain/Sex: Wistar/Male and female, Route: Oral)?
Answer: The mutagenic call was “inactive; negative; glutamine, alone or with vitamin c, reduced effect of doxorubicin”.

Question: And the mutagenic call (End Point: In vivo micronucleus, Test System: Peripheral blood cells, Species: Mouse, Strain/Sex: Swiss/Male, Route: Oral)?
Answer: The mutagenic call was “inactive; negative”.

Question: With O=C1/C(=N\Nc2ccc(/C=C/c3ccc(N/N=C4/C=C(S(=O)(=O)O)c5cccnc5C4=O)cc3S(=O)(=O)O)c(S(=O)(=O)O)c2)C=C(S(=O)(=O)O)c2cccnc21 as the molecule, how does the mutagenic call (Test System: Mouse lymphoma, Strain/Indicator: L5178Y (tk+/tk-), Metabolic Activation: None, Method: Suspension/plate) read?
Answer: The mutagenic call was “inactive; negative”.

Question: And the mutagenic call (Test System: Mouse lymphoma, Strain/Indicator: L5178Y (tk+/tk-), Metabolic Activation: Rat, Liver, S-9, Aroclor 1254, Method: Suspension/plate)?
Answer: The mutagenic call was “inactive; negative”.

Question: How did the mutagenic call [1] turn out when O=C(Nc1ccc(Cl)cc1)Nc1ccc(Cl)c(Cl)c1 was run?
Answer: The mutagenic call was “inactive; negative”.

Question: What about the mutagenic call [2] of the same molecule?
Answer: Its mutagenic call is “inactive; negative”.

Question: And the mutagenic call [3]?
Answer: The mutagenic call was “inactive; negative”.

Question: And the mutagenic call [4]?
Answer: Its mutagenic call is “inactive; negative”.

Question: What about the mutagenic call [5] of the same molecule?
Answer: The mutagenic call was “inactive; negative”.

Question: And the mutagenic call [6]?
Answer: The mutagenic call was “inactive; negative”.

Question: What about the mutagenic call [7] of the same molecule?
Answer: Its mutagenic call is “inactive; negative”.

Question: And the mutagenic call [8]?
Answer: Its mutagenic call is “inactive; negative”.

Question: What about the mutagenic call [9] of the same molecule?
Answer: The mutagenic call was “inactive; negative”.

Question: What about the mutagenic call [10] of the same molecule?
Answer: Its mutagenic call is “inactive; negative”.

Question: And the mutagenic call [11]?
Answer: The mutagenic call was “inactive; negative”.

Question: What about the mutagenic call [12] of the same molecule?
Answer: The mutagenic call was “inactive; negative”.

Question: What does the source list for FC(F)C(F)C(F)(F)F (configuration not stated)?
Answer: mutagenic call (Test System: AMES SALMONELLA TYPHIMURIUM, Strain/Indicator: TA97, Metabolic Activation: NONE, Method: CLOSED GLASS VESSEL): inactive; negative; mutagenic call (Test System: AMES SALMONELLA TYPHIMURIUM, Strain/Indicator: TA97, Metabolic Activation: RAT LIVER S-9, AROCLOR 1254, Method: CLOSED GLASS VESSEL): inactive; negative; mutagenic call (Test System: AMES SALMONELLA TYPHIMURIUM, Strain/Indicator: TA98, Metabolic Activation: NONE, Method: CLOSED GLASS VESSEL): inactive; negative; mutagenic call (Test System: AMES SALMONELLA TYPHIMURIUM, Strain/Indicator: TA98, Metabolic Activation: RAT LIVER S-9, AROCLOR 1254, Method: CLOSED GLASS VESSEL): inactive; negative; mutagenic call (Test System: AMES SALMONELLA TYPHIMURIUM, Strain/Indicator: TA100, Metabolic Activation: NONE, Method: CLOSED GLASS VESSEL): inactive; negative; mutagenic call (Test System: AMES SALMONELLA TYPHIMURIUM, Strain/Indicator: TA100, Metabolic Activation: RAT LIVER S-9, AROCLOR 1254, Method: CLOSED GLASS VESSEL): inactive; negative; mutagenic call (Test System: AMES SALMONELLA TYPHIMURIUM, Strain/Indicator: TA1535, Metabolic Activation: NONE, Method: CLOSED GLASS VESSEL): inactive; negative; mutagenic call (Test System: AMES SALMONELLA TYPHIMURIUM, Strain/Indicator: TA1535, Metabolic Activation: RAT LIVER S-9, AROCLOR 1254, Method: CLOSED GLASS VESSEL): inactive; negative; mutagenic call (Test System: ESCHERICHIA COLI, Strain/Indicator: WP2 UVR A, Metabolic Activation: NONE, Method: CLOSED GLASS VESSEL): inactive; negative; mutagenic call (Test System: ESCHERICHIA COLI, Strain/Indicator: WP2 UVR A, Metabolic Activation: RAT LIVER S-9, AROCLOR 1254, Method: CLOSED GLASS VESSEL): inactive; negative

Question: CN(C)N=Nc1ccccc1 was tested. Which mutagenic call (Test System: AMES SALMONELLA TYPHIMURIUM, Strain/Indicator: G46, Metabolic Activation: NONE, Method: STANDARD PLATE) did it give?
Answer: The mutagenic call was “active; positive”.

Question: What about the mutagenic call (Test System: AMES SALMONELLA TYPHIMURIUM, Strain/Indicator: G46, Metabolic Activation: RAT, LIVER, S-9, PHENOBARBITAL, Method: STANDARD PLATE) of the same molecule?
Answer: The mutagenic call was “active; positive”.

Question: With Cc1cc(-c2cc3c(cc2F)n2c(=O)n(O)c(=O)cc2n3C2CC2)cc(C)n1 as the molecule, how does the mutagenic call (Test System: AMES SALMONELLA TYPHIMURIUM, Strain/Indicator: TA102, Metabolic Activation: NONE, Method: STANDARD PLATE) read?
Answer: The mutagenic call was “active; positive”.

Question: Which mutagenic call (Test System: CHINESE HAMSTER V-79, Strain/Indicator: V-79/6-THIOGUANINE, Metabolic Activation: NONE) does the source give for CCCCC/C=C\C/C=C\C/C=C\C/C=C\CCCC(=O)O here?
Answer: The mutagenic call was “active; positive”.

Question: O=C1CSC(=S)N1 was tested. Which mutagenic call [1] did it give?
Answer: The mutagenic call was “inactive; negative”.

Question: What about the mutagenic call [2] of the same molecule?
Answer: Its mutagenic call is “inactive; negative”.

Question: And the mutagenic call [3]?
Answer: The mutagenic call was “inactive; negative”.

Question: And the mutagenic call [4]?
Answer: Its mutagenic call is “inactive; negative”.

Question: What about the mutagenic call [5] of the same molecule?
Answer: The mutagenic call was “inactive; negative”.

Question: And the mutagenic call [6]?
Answer: The mutagenic call was “inactive; negative”.

Question: What about the mutagenic call [7] of the same molecule?
Answer: The mutagenic call was “inactive; negative”.

Question: And the mutagenic call [8]?
Answer: The mutagenic call was “inactive; negative”.

Question: What about the mutagenic call [9] of the same molecule?
Answer: The mutagenic call was “inactive; negative”.

Question: What about the mutagenic call [10] of the same molecule?
Answer: Its mutagenic call is “inactive; negative”.

Question: And the mutagenic call [11]?
Answer: Its mutagenic call is “inactive; negative”.

Question: And the mutagenic call [12]?
Answer: Its mutagenic call is “inactive; negative”.

Question: For C[N+](C)(C)CC(=O)O, which mutagenic call [13] is on record?
Answer: Its mutagenic call is “inactive; negative”.

Question: And the mutagenic call (Test System: AMES SALMONELLA TYPHIMURIUM, Strain/Indicator: TA100, Metabolic Activation: RAT, LIVER, S-9, AROCLOR 1254, Method: STANDARD PLATE)?
Answer: The mutagenic call was “inactive; negative”.

Question: For CCc1cccc(NC(=O)c2csc([N+](=O)[O-])c2)c1, which mutagenic call (Test System: AMES SALMONELLA TYPHIMURIUM, Strain/Indicator: TA98, Metabolic Activation: NONE, Method: STANDARD PLATE) is on record?
Answer: Its mutagenic call is “active; positive”.

Question: What about the mutagenic call [13] of the same molecule?
Answer: The mutagenic call was “active; positive”.

Question: O=C(CCCl)N=c1sn(C(=O)CCCl)c2ccccc12 was tested. Which mutagenic call (Test System: AMES SALMONELLA TYPHIMURIUM, Strain/Indicator: TA100, Metabolic Activation: S-9, Method: STANDARD PLATE) did it give?
Answer: Its mutagenic call is “inactive; negative”.
